Source: patent US12521375B2, “Pharmaceutical composition for treating fatty liver disease” (Shionogi & Co., Ltd., priority 2020, dated 2026)
Read-outs that look alike come from different tables or passages of the source.

What was measured:
[1] = target: recombinant human ACC1 (Homo sapiens (Human), UniProt Q13085); assay: Measurement of inhibitory activity of human ACC1; format: biochemical; details: read-out: IC50 hACC1
From the text: A cDNA encoding human ACC1 protein (1 amino acid residue to 2346 amino acid residues from the N-terminus) was cloned from a human liver cDNA library (BioChain Institute Inc.), myc tag and His-tag sequences were introduced at the 3′ end, and then inserted into pIEXBAC3 (Novagen). A recombinant baculovirus was produced in accordance with the protocol for FlashBACGOLD (Oxford Expression Technologies Ltd.), and Sf-9 cells were infected therewith to express human ACC1 protein. The recovered cells were crushed, filtered through a filter, and then subjected to Ni affinity chromatography and anion exchange chromatography. Fractions containing human ACC1 protein were collected to obtain recombinant human ACC1.
(§1) The recombinant human ACC1 and the recombinant human ACC2 obtained from the above Preparation Examples were preincubated in an assay buffer (50 mM HEPES-KOH (pH 7.4), 10 mM magnesium chloride, 6 to 10 mM potassium citrate, 4 mM reduced glutathione, and 1.5 mg/ml bovine serum albumin) for 1 hour. Then, 5 μL of the pre-incubated enzyme solution and 5 μL of a substrate solution (50 mM HEPES-KOH (pH 7.4), 1 mM ATP, 0.8 mM acetyl-CoA, and 25 to 50 mM potassium bicarbonate) were added to a 384-well microplate into which 0.2 μL of each of solutions of the compound of the present invention (DMSO) had been dispensed, and the mixture was centrifuged and shaken, and then incubated in a wet box at room temperature for 1 to 3 hours. After incubation, the enzymatic reaction was stopped by addition of EDTA, and then the compound was co-crystallized with an α-cyano-4-hydroxy cinnamic acid (CHCA) matrix on a MALDI target plate, and measurement was performed in a reflector negative mode using a matrix-assisted laser desorption ionization-time-of-flight mass spectrometer (MALDI-TOF MS). Deprotonated ions of the substrate acetyl-CoA (AcCoA) and the reaction product malonyl-CoA (MalCoA) were detected, and the intensity of each signal was used to calculate a conversion rate to malonyl-CoA […], i.e., intensity of [MalCoA-H]-/(intensity of [MalCoA-H]-+intensity of [AcCoA-H]-). […] The potassium citrate concentration in the assay buffer, the potassium bicarbonate concentration in the substrate solution, and the incubation time were adjusted within the above concentrations or reaction times for each lot of the enzyme to be used.

[2] = target: recombinant human ACC2 (Homo sapiens (Human), UniProt O00763); assay: Measurement of inhibitory activity of human ACC2; format: biochemical; details: read-out: IC50 hACC2
recombinant human ACC2, sequence (O00763 27-2458): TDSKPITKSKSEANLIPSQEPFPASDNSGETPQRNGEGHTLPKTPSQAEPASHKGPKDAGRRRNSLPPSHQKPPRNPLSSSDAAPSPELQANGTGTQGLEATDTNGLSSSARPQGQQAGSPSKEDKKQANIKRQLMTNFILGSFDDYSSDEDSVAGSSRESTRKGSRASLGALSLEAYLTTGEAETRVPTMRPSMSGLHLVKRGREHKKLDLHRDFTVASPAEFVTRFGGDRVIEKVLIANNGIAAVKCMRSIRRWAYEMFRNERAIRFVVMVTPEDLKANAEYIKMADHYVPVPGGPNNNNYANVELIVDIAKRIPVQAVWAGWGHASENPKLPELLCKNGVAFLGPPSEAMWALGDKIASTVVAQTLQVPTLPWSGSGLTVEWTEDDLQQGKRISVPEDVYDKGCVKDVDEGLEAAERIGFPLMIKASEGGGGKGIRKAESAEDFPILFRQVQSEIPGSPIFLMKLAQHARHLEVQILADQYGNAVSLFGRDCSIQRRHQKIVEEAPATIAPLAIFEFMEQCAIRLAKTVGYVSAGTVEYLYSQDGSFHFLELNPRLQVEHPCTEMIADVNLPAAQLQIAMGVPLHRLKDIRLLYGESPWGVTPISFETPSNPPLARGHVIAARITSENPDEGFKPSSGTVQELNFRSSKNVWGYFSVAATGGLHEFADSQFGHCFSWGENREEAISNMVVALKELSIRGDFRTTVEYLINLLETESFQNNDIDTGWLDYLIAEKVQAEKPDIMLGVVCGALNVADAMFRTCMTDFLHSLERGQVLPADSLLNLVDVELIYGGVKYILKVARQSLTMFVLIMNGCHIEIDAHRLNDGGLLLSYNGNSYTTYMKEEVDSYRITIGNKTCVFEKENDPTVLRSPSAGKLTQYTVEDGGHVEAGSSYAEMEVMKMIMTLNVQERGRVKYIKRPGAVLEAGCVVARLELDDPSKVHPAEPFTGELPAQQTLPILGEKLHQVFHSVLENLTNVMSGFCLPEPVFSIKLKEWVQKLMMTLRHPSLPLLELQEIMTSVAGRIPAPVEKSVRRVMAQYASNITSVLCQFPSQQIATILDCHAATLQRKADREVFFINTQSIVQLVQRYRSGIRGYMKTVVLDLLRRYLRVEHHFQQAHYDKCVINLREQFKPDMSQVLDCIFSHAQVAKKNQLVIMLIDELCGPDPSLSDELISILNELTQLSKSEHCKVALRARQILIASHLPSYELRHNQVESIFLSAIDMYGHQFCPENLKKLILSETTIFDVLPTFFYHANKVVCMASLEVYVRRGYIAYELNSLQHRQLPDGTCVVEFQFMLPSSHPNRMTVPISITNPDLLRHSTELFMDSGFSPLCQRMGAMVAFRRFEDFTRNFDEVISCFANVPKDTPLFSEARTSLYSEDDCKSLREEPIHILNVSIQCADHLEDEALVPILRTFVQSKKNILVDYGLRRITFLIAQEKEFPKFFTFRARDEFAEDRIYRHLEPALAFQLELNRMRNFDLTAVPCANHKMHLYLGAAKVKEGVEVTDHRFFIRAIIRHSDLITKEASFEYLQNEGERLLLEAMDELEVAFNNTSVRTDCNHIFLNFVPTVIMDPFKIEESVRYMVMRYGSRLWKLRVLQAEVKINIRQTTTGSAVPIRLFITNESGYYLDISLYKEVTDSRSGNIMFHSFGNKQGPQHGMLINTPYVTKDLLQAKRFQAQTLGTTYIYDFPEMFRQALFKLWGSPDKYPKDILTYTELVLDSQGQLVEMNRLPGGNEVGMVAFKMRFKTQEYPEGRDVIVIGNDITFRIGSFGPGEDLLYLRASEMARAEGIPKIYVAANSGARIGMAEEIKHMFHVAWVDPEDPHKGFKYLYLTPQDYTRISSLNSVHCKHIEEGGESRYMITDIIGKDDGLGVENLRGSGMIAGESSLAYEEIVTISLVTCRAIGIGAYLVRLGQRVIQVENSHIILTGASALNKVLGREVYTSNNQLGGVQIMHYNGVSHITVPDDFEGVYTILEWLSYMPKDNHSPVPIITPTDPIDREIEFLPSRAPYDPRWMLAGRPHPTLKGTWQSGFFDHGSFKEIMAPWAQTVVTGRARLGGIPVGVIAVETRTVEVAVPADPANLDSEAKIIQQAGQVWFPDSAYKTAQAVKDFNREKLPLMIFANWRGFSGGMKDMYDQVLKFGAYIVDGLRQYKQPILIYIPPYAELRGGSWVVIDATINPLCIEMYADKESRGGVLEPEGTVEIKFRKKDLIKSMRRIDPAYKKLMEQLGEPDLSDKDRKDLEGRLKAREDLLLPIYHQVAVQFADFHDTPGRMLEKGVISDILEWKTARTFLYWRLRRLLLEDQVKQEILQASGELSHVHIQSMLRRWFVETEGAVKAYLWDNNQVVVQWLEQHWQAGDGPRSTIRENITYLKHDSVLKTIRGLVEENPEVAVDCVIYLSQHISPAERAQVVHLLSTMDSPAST
From the text: A cDNA encoding human ACC2 protein (27 amino acid residues to 2458 amino acid residues from the N-terminus) was cloned from a human kidney cDNA library (Clontech Laboratories, Inc.), a His-tag sequence was introduced at the 5′ end, and then inserted into pFastBac1 (Invitrogen). A recombinant baculovirus was produced in accordance with the protocol for a Bac-to-Bac baculovirus expression system (Invitrogen), and Sf-9 cells were infected therewith to express human ACC2 protein. The recovered cells were crushed, filtered through a filter, and then subjected to Ni affinity chromatography and anion exchange chromatography. Fractions containing human ACC2 protein were collected to obtain recombinant human ACC2.
as §1, with “Then, 5 μL of the pre-incubated enzyme solution and 5 μL of a substrate solution (50 mM HEPES-KOH (pH 7.4), 1 mM ATP, 0.8 mM acetyl-CoA, and 25 to 50 mM potassium bicarbonate) were added to a 384-well microplate into which 0.2 μL of each of solutions of the compound of the present invention (DMSO) had been dispensed, and the mixture was centrifuged and shaken, and then incubated in a wet box at room temperature for 1 to 3 hours.” left out

[3] = Metabolic stability test (human); format: in vitro ADME; details: human liver microsomes, 37° C., 30 minutes, NADPH
Method: (§2) Commercially available pooled human liver microsomes were reacted with the compound of the present invention for a given time. A residual rate was calculated by comparison between the reacted sample and the unreacted sample to evaluate a degree at which the compound of the present invention is metabolized in the liver.
(§3) The compound was reacted at 37° C. for 0 minutes or 30 minutes in the presence of 1 mmol/L NADPH in 0.2 mL of a buffer (50 mmol/L Tris-HCl pH 7.4, 150 mmol/L potassium chloride, and 10 mmol/L magnesium chloride) containing 0.5 mg protein/mL of the human liver microsomes (oxidative reaction). After the reaction, 50 μL of the reaction solution was added to 100 μL of a solution of methanol/acetonitrile=1/1 (v/v) and mixed, and the mixture was centrifuged at 3000 rpm for 15 minutes. The compound of the present invention in the centrifuged supernatant was quantified by LC/MS/MS or solid-phase extraction (SPE)/MS. The amount of the compound of the present invention remained after the reaction was calculated with the amount of the compound at 0 minutes of the reaction defined as 100%.

[4] = Metabolic stability test (rat); format: in vitro ADME
Method: [Worded in the source for another species; this species is reported under the same test.] as §2, §3

[5] = system: NAFLD patients; details: cited from earlier work
[6] = system: healthy subjects; details: repeated administration to healthy subjects; cited from earlier work

SMILES: CC(=O)N[C@@H](C)CO[C@H]1CC[C@H](Oc2nc3c(F)cc(OC4CCC4)cc3n2C)CC1 [Compound I-1]
- IC50 [1]: 320 nM

SMILES: CC(=O)N[C@@H](C)CC[C@H]1OC[C@H](Oc2nc3c(F)cc(OCC(F)F)c(F)c3n2C)C[C@@H]1F [Compound I-2]
- IC50 [1]: 2400 nM
- IC50 [2]: 10 nM

SMILES: CC(=O)N[C@@H](C)CO[C@H]1CC[C@H](Oc2nc3c(Cl)cc(OC4CC4)cc3n2C)CC1 [Compound I-3]
- IC50 [1]: 2800 nM
- Amount of compound remained, Human [3]: 80.3%
- Amount of compound remained, Rat [4]: 82.6%

SMILES: CC(=O)N[C@@H](CF)CO[C@H]1CC[C@H](Oc2nc3c(F)cc(OC4CC4)cc3n2C)CC1 [Compound I-4]
- IC50 [1]: 2700 nM
- IC50 [2]: 4.7 nM
- Amount of compound remained, Human [3]: 93.4%
- Amount of compound remained, Rat [4]: 87.3%

SMILES: Cn1c(O[C@H]2CC[C@H](OC[C@H](CF)NC(N)=O)CC2)nc2c(F)cc(OC3CC3)cc21 [Compound I-5]
- IC50 [1]: 6900 nM
- IC50 [2]: 8.9 nM
- Amount of compound remained, Human [3]: 98.9%
- Amount of compound remained, Rat [4]: 83.4%

SMILES: CC(=O)N[C@@H](C)C(F)(F)C[C@H]1CC[C@H](Oc2nc3c(F)cc(OCC(F)F)c(F)c3n2C)CO1 [Compound I-6]
- IC50 [1]: 920 nM
- IC50 [2]: 12 nM
- Amount of compound remained, Human [3]: 93.2%
- Amount of compound remained, Rat [4]: 74%

SMILES: CC(=O)N[C@H](C)C(F)(F)C[C@H]1CC[C@H](Oc2nc3c(F)cc(OCC(F)F)c(F)c3n2C)CO1 [Compound I-7]
- IC50 [1]: 25000 nM
- IC50 [2]: 180 nM
- Amount of compound remained, Human [3]: 89.1%
- Amount of compound remained, Rat [4]: 74.7%

SMILES: C[C@@H](CO[C@H]1CC[C@H](Oc2nc3c(Cl)cc(OC4CC4)cc3n2C)CC1)NC(N)=O [Compound I-8]
- IC50 [1]: 6200 nM
- IC50 [2]: 17 nM
- Amount of compound remained, Human [3]: 83.6%
- Amount of compound remained, Rat [4]: 85.4%

SMILES: CC(=O)N[C@@H](C)CC[C@H]1OC[C@H](Oc2nc3c(F)cc(OCC(F)F)c(F)c3n2C)CC1(F)F [Compound I-9]
- IC50 [1]: 2600 nM
- IC50 [2]: 13 nM

SMILES: CC(=O)N[C@@H](C)CC(F)(F)[C@@H]1CC[C@@H](Oc2nc3c(F)cc(OCC(F)F)c(F)c3n2C)CO1 [Compound I-10]
- IC50 [1]: > 100000 nM
- IC50 [2]: 89 nM

SMILES: C[C@@H](CCC1OCC(Oc2nc3c(F)cc(OCC(F)F)c(F)c3n2C)CO1)NC(N)=O (stereo partly drawn) [Compound I-11]
- IC50 [1]: 7000 nM
- IC50 [2]: 9.6 nM
- Amount of compound remained, Human [3]: 95.8%
- Amount of compound remained, Rat [4]: 94.5%

SMILES: CC(=O)N[C@@H](C)CO[C@H]1CC[C@H](Oc2nc3c(F)cc(OCC(F)F)c(F)c3n2C)CC1 [Compound I-14]
- IC50 [1]: 2700 nM
- IC50 [2]: 6.6 nM
- Amount of compound remained, Human [3]: 94.8%
- Amount of compound remained, Rat [4]: 78%

SMILES: CC(=O)N[C@@H](C)CO[C@H]1CC[C@H](Oc2nc3c(F)cc(OC4CC4)cc3n2C)CC1 [Compound I-15]
- IC50 [1]: 1700 nM
- IC50 [2]: 3.8 nM
- Amount of compound remained, Human [3]: 80.2%
- Amount of compound remained, Rat [4]: 76.2%

SMILES: COc1cc(C(=O)N2CCC3(CC2)CC(=O)c2cc(-c4cncc(C(=O)O)c4)ccc2O3)cc2c1c(C)cn2C1CC1 [MK-4074]
- Plasma triglyceride concentration [5]: elevated plasma triglyceride concentration

SMILES: Cc1nc2ccc(C(=O)N3CCC4(CC3)CC(=O)c3c(cnn3C(C)C)C4)cc2[nH]1 [PF-05175157]
- platelet concentration [6]: reduced a platelet concentration

SMILES: COc1ccccc1[C@H](Cn1c(=O)n(C(C)(C)C(=O)O)c(=O)c2c(C)c(-c3ncco3)sc21)OC1CCOCC1 [firsocostat]
- Plasma triglyceride concentration ([5]; phase II study over 12 weeks): elevated plasma triglyceride concentration
